In general, IC50 refers to the concentration that inhibits the measured activity by half. Higher therefore signals lower potency.

Assay [1] deals with T1, isolated kinase domain of the human FLT3 receptor (a.a. 571-993) (Homo sapiens, UniProt P36888).
T1 construct: isolated kinase domain of the human FLT3 receptor (a.a. 571-993)
T1 sequence (P36888 571-993): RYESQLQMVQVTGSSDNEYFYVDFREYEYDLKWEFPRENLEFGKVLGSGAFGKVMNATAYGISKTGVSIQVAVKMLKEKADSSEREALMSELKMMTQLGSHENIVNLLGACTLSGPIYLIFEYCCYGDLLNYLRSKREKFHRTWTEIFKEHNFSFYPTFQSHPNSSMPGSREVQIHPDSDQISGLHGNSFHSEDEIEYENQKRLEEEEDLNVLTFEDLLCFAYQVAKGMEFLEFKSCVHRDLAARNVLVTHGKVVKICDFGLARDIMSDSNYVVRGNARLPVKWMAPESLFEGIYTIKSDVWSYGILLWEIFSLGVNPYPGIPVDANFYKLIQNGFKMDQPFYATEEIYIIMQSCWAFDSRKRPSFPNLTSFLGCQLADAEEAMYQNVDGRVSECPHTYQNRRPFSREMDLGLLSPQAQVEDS
Description: FLT3 Fluorescence Polarization Kinase Assay. In kind it is biochemical. The following applies: 10 nM FLT3 571-993, 150 uM ATP; uncertainty ±10%. As for the experimental part:
FLT3 Fluorescence Polarization Kinase Assay
To determine the activity of the FLT3 inhibitors of Formula I′ in an in vitro kinase assay, inhibition of the isolated kinase domain of the human FLT3 receptor (a.a. 571-993) was performed using the following fluorescence polarization (FP) protocol. The FLT3 FP assay utilizes the fluorescein-labeled phosphopeptide and the anti-phosphotyrosine antibody included in the Panvera Phospho-Tyrosine Kinase Kit (Green) supplied by Invitrogen. When FLT3 phosphorylates polyGlu4Tyr, the fluorescein-labeled phosphopeptide is displaced from the anti-phosphotyrosine antibody by the phosphorylated poly Glu4Tyr, thus decreasing the FP value. The FLT3 kinase reaction is incubated at room temperature for 30 minutes under the following conditions: 10 nM FLT3 571-993, 20 ug/mL poly Glu4Tyr, 150 uM ATP, 5 mM MgCl2, 1% compound in DMSO. The kinase reaction is stopped with the addition of EDTA. The fluorescein-labeled phosphopeptide and the anti-phosphotyrosine antibody are added and incubated for 30 minutes at room temperature.
All data points are an average of triplicate samples. Inhibition and IC50 data analysis was done with GraphPad Prism using a non-linear regression fit with a multiparamater, sigmoidal dose-response (variable slope) equation.
In general terms: Fluorescence polarisation rises when a labelled molecule tumbles more slowly, as on binding a larger partner.

Assay [2] deals with MV4-11 cells. Description: Inhibition of MV4-11 cell proliferation (CellTiterGlo, 72 hours). The class given is cell-based. The following applies: Homo sapiens; 72 hours growth; uncertainty ±20%. As for the experimental part:
Inhibition Of MV4-11 and Baf3 Cell Proliferation
To assess the cellular potency of the FLT3 inhibitors of Formula I′, FLT3 specific growth inhibition was measured in the leukemic cell line MV4-11 (ATCC Number: CRL-9591). […] MV4-11 cells cannot grow and survive without active FLT3ITD.
To measure proliferation inhibition by test compounds, the luciferase based CellTiterGlo reagent (Promega), which quantifies total cell number based on total cellular ATP concentration, was used. Cells are plated at 10,000 cells per well in 100 ul of in RPMI media containing penn/strep, 10% FBS and 1 ng/ml GM-CSF or 1 ng/ml IL-3 for MV4-11 and Baf3 cells respectively.
Compound dilutions or 0.1% DMSO (vehicle control) are added to cells and the cells are allowed to grow for 72 hours at standard cell growth conditions (37° C., 5% CO2). For activity measurements in MV4-11 cells grown in 50% plasma, cells were plated at 10,000 cells per well in a 1:1 mixture of growth media and human plasma (final volume of 100 μL). To measure total cell growth an equal volume of CellTiterGlo reagent was added to each well, according to the manufacturer's instructions, and luminescence was quantified. Total cell growth was quantified as the difference in luminescent counts (relative light units, RLU) of cell number at Day 0 compared to total cell number at Day 3 (72 hours of growth and/or compound treatment). One hundred percent inhibition of growth is defined as an RLU equivalent to the Day 0 reading. Zero percent inhibition was defined as the RLU signal for the DMSO vehicle control at Day 3 of growth. All data points are an average of triplicate samples. […] Inhibition and IC50 data analysis was done with GraphPad Prism using a non-linear regression fit with a multiparamater, sigmoidal dose-response (variable slope) equation.
MV4-11 cells express the FLT3 internal tandem duplication mutation, and thus are entirely dependent upon FLT3 activity for growth. […] In contrast, the Baf3 cell proliferation is driven by the cytokine IL-3 and thus are used as a non-specific toxicity control for test compounds.

Molecules are shown by their SMILES.

`CCO/N=C/c1c(N)ncnc1N1CCC(OC(=O)Nc2ccc(OC(C)C)cc2)CC1` [Number 2, (4-Isopropoxy-phenyl)-carbamic acid 1-[6-amino-5-(ethoxyimino-methyl)-pyrimidin-4-yl]-piperidin-4-yl ester]: the half-inhibitory concentration (IC50) was 0.055 µM in assay [1] and 0.135 µM in assay [2].

Consider `CO/N=C/c1c(N)ncnc1N1CCC(NC(=O)Nc2ccc(Cl)cc2)CC1` [Number 25, 1-{1-[6-Amino-5-(methoxyimino-methyl)-pyrimidin-4-yl]-piperidin-4-yl}-3-(4-chloro-phenyl)-urea], for which the concentration for half-maximal inhibition (IC50) in assay [1] came out at 0.034 µM; in assay [2], 0.89 µM.

Take `CO/N=C/c1c(N)ncnc1N1CCC(NC(=O)Nc2ccc(N3CCCCC3)cc2)C1` (centres unmarked) [Number 9, 1-{1-[6-Amino-5-(methoxyimino-methyl)-pyrimidin-4-yl]-pyrrolidin-3-yl}-3-(4-piperidin-1-yl-phenyl)-urea]: the IC50 was 0.45 µM in assay [1] and 0.764 µM in assay [2].

As to `CO/N=C/c1c(N)ncnc1N1CCC(NC(=O)Nc2ccc(Oc3ccccc3)cc2)C1` (centres unmarked) [Number 19, 1-{1-[6-Amino-5-(methoxyimino-methyl)-pyrimidin-4-yl]-pyrrolidin-3-yl}-3-(4-phenoxy-phenyl)-urea], the figures for the IC50 in assay [1] and in assay [2] were 2.5 µM and 0.371 µM, respectively.

The record behind these values is patent US20060281700A1, “SYNERGISTIC MODULATION OF FLT3 KINASE USING AMINOPYRIMIDINES KINASE MODULATORS” (priority 2005, published 2006).
